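Method: 48-hour compound exposure of cells in 96-well plates, five concentrations, linear interpolation of endpoints. GI50 = concentration required for 50% inhibition of growth. Definition used: TGI = concentration required for complete inhibition of growth.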
Key:
Assay in all cases: growth of human tumour cells (NCI), 48 h
A498 renal = system: A498 renal
A549 NSCLC = system: A549 NSCLC
DU-145 prostate = system: DU-145 prostate
HCT-15 colon = system: HCT-15 colon
HS 578T breast = system: HS 578T breast
K-562 leukemia = system: K-562 leukemia
NCI-H23 lung = system: NCI-H23 lung
OVCAR-4 ovarian = system: OVCAR-4 ovarian
OVCAR-8 ovarian = system: OVCAR-8 ovarian
SF-295 CNS = system: SF-295 CNS

SMILES | TGI (A498 renal) | TGI (A549 NSCLC) | TGI (DU-145 prostate) | TGI (HCT-15 colon) | TGI (HS 578T breast) | TGI (K-562 leukemia) | TGI (NCI-H23 lung) | TGI (OVCAR-4 ovarian) | TGI (OVCAR-8 ovarian) | TGI (SF-295 CNS) | GI50 (A498 renal) | GI50 (A549 NSCLC) | GI50 (DU-145 prostate) | GI50 (HCT-15 colon) | GI50 (HS 578T breast) | GI50 (K-562 leukemia) | GI50 (NCI-H23 lung) | GI50 (OVCAR-4 ovarian) | GI50 (OVCAR-8 ovarian) | GI50 (SF-295 CNS)
N#CC(NNC(=O)Cc1ccccc1)c1c(O)ccc2ccccc12 (centres undefined) | > 72.5 µM | 44.1 µM | > 63.2 µM | > 100 µM | 50.5 µM | > 100 µM | 37.8 µM | 51 µM | 52.2 µM | 40.2 µM | – | – | – | – | – | – | – | – | – | –
CN1C/C=C\CCOc2cccc(c2)-c2ccnc(n2)Nc2cccc(c2)C1 | 0.156 µM | 0.8 µM | 6 µM | 1.96 µM | 0.82 µM | 6.21 µM | 0.599 µM | 1.88 µM | 0.887 µM | 1.1 µM | 0.0572 µM | 0.0469 µM | 0.0562 µM | 0.0435 µM | 0.0641 µM | 0.0931 µM | 0.0717 µM | 0.113 µM | 0.0385 µM | 0.0616 µM
CN(C)C(=O)c1cc2cnc(Nc3ccc(-c4csc5c(=S)cc(N6CCOCC6)oc45)cc3)nc2n1C1CCCC1 | 1.12 µM | 5.15 µM | > 50 µM | > 50 µM | 3.98 µM | > 50 µM | > 19.5 µM | > 50 µM | > 50 µM | > 13.5 µM | 0.103 µM | 0.823 µM | 0.774 µM | 0.344 µM | 0.469 µM | 0.939 µM | 0.699 µM | 1.03 µM | 0.744 µM | 0.672 µM
CCOC(=O)[C@@H](N)CCC(=O)N[C@@H](CSCc1ccccc1)C(=O)N[C@@H](C(=O)OCC)c1ccccc1 | 38.8 µM | > 100 µM | > 100 µM | > 71.2 µM | 47.3 µM | 75 µM | 40.9 µM | > 57.1 µM | 32.5 µM | 40.2 µM | 17.2 µM | > 73.2 µM | 38.3 µM | 33.7 µM | 16.6 µM | 22.2 µM | 18.8 µM | 27.5 µM | 16.8 µM | 18.3 µM
NS(=O)(=O)c1ccc(N=Nc2c(O)[nH]c3ccc(-c4cnco4)cc23)cc1 | > 25 µM | > 25 µM | > 25 µM | > 25 µM | > 25 µM | > 25 µM | > 25 µM | > 25 µM | > 25 µM | > 25 µM | > 25 µM | > 25 µM | 24.4 µM | > 25 µM | > 25 µM | > 25 µM | > 25 µM | > 25 µM | > 19.2 µM | > 25 µM
O=C(NC1=CC(=O)c2ccccc2C1=O)c1ccccc1 | 17.5 µM | 16.4 µM | 3.46 µM | 5.6 µM | 71.9 µM | > 100 µM | 9.5 µM | 2.26 µM | 5.63 µM | 7.73 µM | 4.46 µM | 2.91 µM | 1.71 µM | 0.549 µM | 1.09 µM | 0.694 µM | 1.12 µM | 1.04 µM | 1.67 µM | 2 µM
O=C(O)C1OC(n2cc(F)c(=O)[nH]c2=O)CC1O (centres undefined) | > 100 µM | > 100 µM | > 100 µM | > 100 µM | > 100 µM | > 100 µM | > 100 µM | > 100 µM | > 100 µM | > 100 µM | – | – | – | – | – | – | – | – | – | –
CN1CCN(CCCOc2ccc3nc(Nc4ccc(Cl)c(C(F)(F)F)c4)ccc3c2)CC1 | 28.8 µM | 28.9 µM | 24.3 µM | 13.3 µM | 32.1 µM | 5.78 µM | 29.3 µM | 26.4 µM | 32.4 µM | 29.7 µM | 13.7 µM | 14.7 µM | 11.9 µM | 3.66 µM | 12.5 µM | 2.4 µM | 13.9 µM | 12.7 µM | 16.4 µM | 14.3 µM
COc1cc(/C=C/c2cc(/C=C/c3ccc(O)c(OC)c3)n(C(=O)Nc3ccc(F)c(Cl)c3)n2)ccc1O | 2.1 µM | 3.47 µM | 1.55 µM | 3.34 µM | 2.74 µM | 1.45 µM | 1.46 µM | 5.47 µM | 3.09 µM | 2.6 µM | 0.783 µM | 0.387 µM | 0.419 µM | 0.25 µM | 0.346 µM | 0.288 µM | 0.147 µM | 0.721 µM | 0.496 µM | 0.544 µM
COc1ccc(Nc2c3ccccc3nc3occc23)cc1 | 21.8 µM | 41.6 µM | > 100 µM | 14.1 µM | > 67.6 µM | – | > 27.6 µM | > 100 µM | > 100 µM | 8.09 µM | 4.5 µM | 3.26 µM | 14.2 µM | 0.336 µM | 6.23 µM | 0.292 µM | 3.72 µM | 16.9 µM | 5.71 µM | 0.533 µM
CC(C)n1nc(-c2cc3cc(O)ccc3[nH]2)c2c(N)ncnc21 | 0.123 µM | 2.67 µM | 12 µM | 13.9 µM | 0.503 µM | 36.1 µM | 9.19 µM | 0.923 µM | 3.21 µM | 0.87 µM | 0.0194 µM | 0.313 µM | 0.498 µM | 0.342 µM | 0.109 µM | 0.579 µM | 0.317 µM | 0.0827 µM | 0.314 µM | 0.122 µM
COc1cc2ncnc(Nc3ccc(C)c(O)c3)c2cc1OC | 18 µM | > 25 µM | > 25 µM | > 25 µM | 18.8 µM | > 25 µM | > 25 µM | > 25 µM | > 25 µM | > 25 µM | 5.56 µM | 18.1 µM | 7.91 µM | 14.1 µM | 5.36 µM | 7.19 µM | > 25 µM | 9.91 µM | 11.2 µM | > 25 µM
Cc1cc(S(=O)(=O)Nc2nnc(-c3ccccc3)c(-c3ccccc3)n2)c(SCC(N)=O)cc1Cl | > 100 µM | > 100 µM | > 100 µM | > 100 µM | > 100 µM | > 100 µM | > 100 µM | > 100 µM | 87 µM | 75 µM | > 100 µM | > 100 µM | 55.7 µM | > 100 µM | 32.5 µM | 36.3 µM | 78.7 µM | 41.5 µM | 32.5 µM | 28.5 µM
CC(C)(C)c1cc(C(C)(C)C)cc(S(=O)(=O)Nc2cc3ccccc3cc2C(=O)NCCN)c1 | 3.3 µM | 3.77 µM | 3.47 µM | 3.04 µM | 4.89 µM | 4.85 µM | 3.53 µM | 3.94 µM | 4.87 µM | 3.17 µM | 1.77 µM | 1.95 µM | 1.82 µM | 1.64 µM | 2.17 µM | 2.16 µM | 1.76 µM | 1.86 µM | 2.2 µM | 1.72 µM
c1cc(CNC23CC4CC(CC(C4)C2)C3)cc(C[N+](Cc2cccc(CNC34CC5CC(CC(C5)C3)C4)c2)(Cc2cccc(CNC34CC5CC(CC(C5)C3)C4)c2)Cc2cccc(CNC34CC5CC(CC(C5)C3)C4)c2)c1 (centres undefined) | 29.5 µM | 36.4 µM | 19.3 µM | 16.4 µM | 49.4 µM | 151 µM | 26.6 µM | 22.8 µM | 35.4 µM | 43.6 µM | 4.98 µM | 8.91 µM | 6.16 µM | 4.59 µM | 8.01 µM | 6.1 µM | 6.38 µM | 4.85 µM | 8.64 µM | 12.7 µM
CC(C)(C)c1cc(Br)c(O)c(CN(Cc2cc(C(C)(C)C)cc(Br)c2O)C2CCCCC2)c1 | 26.3 µM | 27.1 µM | 26.8 µM | 25.4 µM | 28.4 µM | 28.3 µM | 26.3 µM | 22.3 µM | 28.3 µM | 25.3 µM | – | – | – | – | – | – | – | – | – | –
COC(=O)[C@H](C)NC(=O)NC(=O)NC(=O)CI | 30.4 µM | 36.3 µM | 29.2 µM | 18 µM | 54.1 µM | 17 µM | 36.9 µM | 24.4 µM | 33.9 µM | 33.1 µM | 15.4 µM | 20 µM | 15.4 µM | 5.26 µM | 21.4 µM | 4.16 µM | 16.8 µM | 11.6 µM | 16.6 µM | 17.4 µM
Oc1cccnc1CN1CCCCC1 | > 100 µM | > 100 µM | > 100 µM | > 100 µM | > 100 µM | > 100 µM | > 100 µM | > 100 µM | > 100 µM | > 100 µM | – | – | – | – | – | – | – | – | – | –
NP(=O)(Oc1c2occc2cc2ccc(=O)oc12)N(CCCl)CCCl (centres undefined) | > 100 µM | > 100 µM | > 100 µM | > 100 µM | > 100 µM | > 100 µM | > 100 µM | > 100 µM | > 100 µM | > 100 µM | – | – | – | – | – | – | – | – | – | –
O=C(N/N=C/c1ccc(Cl)cc1)c1ccc(C(F)(F)F)nc1Nc1cccc(C(F)(F)F)c1 | 8.69 µM | 9.61 µM | 10.8 µM | 12.2 µM | 10.2 µM | > 35.9 µM | 8.74 µM | 15.2 µM | 15.1 µM | 4.62 µM | 2.24 µM | 2.89 µM | 2.33 µM | 0.855 µM | 2.98 µM | 3.15 µM | 2.31 µM | 0.736 µM | 2.23 µM | 1.17 µM
N=C1C(c2nc3ccccc3s2)=C(O)CN1c1cc(C(F)(F)F)ccc1Cl | 97.9 µM | > 100 µM | > 100 µM | > 100 µM | > 100 µM | 21.3 µM | > 100 µM | > 100 µM | > 100 µM | > 100 µM | 24.6 µM | 21.1 µM | 25.8 µM | 3.44 µM | 35.7 µM | 3.61 µM | 26.3 µM | > 100 µM | 32.9 µM | 16.2 µM
COC1=C(C)C(=O)c2c(c(COC(N)=O)c3n2CC2C3N2C)C1=O (centres undefined) | 0.206 µM | 0.0645 µM | 0.0542 µM | 0.0719 µM | 0.986 µM | 0.341 µM | < 0.0363 µM | 0.244 µM | 0.216 µM | 0.0261 µM | – | – | – | – | – | – | – | – | – | –
Cc1ccc(C(=O)CN(/C=C/C(=O)C(F)(F)F)c2ccc(S(N)(=O)=O)cc2)cc1 | > 100 µM | > 100 µM | > 100 µM | > 100 µM | > 100 µM | > 100 µM | > 100 µM | > 100 µM | > 100 µM | > 100 µM | > 100 µM | 63.5 µM | > 100 µM | 86 µM | 55.3 µM | 39.3 µM | 37.2 µM | > 100 µM | 61.2 µM | 43.8 µM
CCOC(=O)c1c(C)n(Cc2ccc(Cl)cc2Cl)c2c1c(CN(C)C)c(O)c1[nH]cnc12 | 35 µM | 32.5 µM | 30.9 µM | 28.9 µM | 81.8 µM | 15.5 µM | 5.95 µM | 85.7 µM | 28.3 µM | 65 µM | 20 µM | 15.9 µM | 17.2 µM | 15.5 µM | 29.1 µM | 3.22 µM | 0.271 µM | 16.7 µM | 15.1 µM | 28.1 µM

From PubChem BioAssay (NCI)
